# B1: monoclonal antibody rF1 (recombinantly produced F1), human IgG1 kappa (antibody, V domains shown)
# VH: EVQLVESGGGLVQPGGSLRLSCAASGFTLSRFAMSWVRQAPGRGLEWVASINNGNNPYYARSVQYRFTVSRDVSQNTVSLQMNNLRAEDSATYFCAKDHPSSGWPTFDSWGPGTLVTVSS
# VL: DIQLTQSPSALPASVGDRVSITCRASENVGDWLAWYRQKPGKAPNLLIYKTSILESGVPSRFSGSGSGTEFTLTISSLQPDDFATYYCQHYMRFPYTFGQGTKVEIKR
# Key:
# [1] = tested on: S. aureus (USA300 NRS384 strain) in murine macrophages; test: In vitro macrophage assay; type: cell-based, Staphylococcus aureus; details: for reduction of bacterial loads: highest dose tested (100 ug/mL), intracellular bacteria 2 days later; for killing of intracellular MRSA: macrophage assay in vitro
# Method: S. aureus (USA300 NRS384 strain) was incubated with various doses (100 ug/mL, 10 ug/mL, 1 ug/mL or 0.1 ug/mL) of an anti-S. aureus unconjugated antibody, 103 AAC loaded with 1.9 average antibiotic molecules per antibody (AAR2) or with 102 AAC loaded with 3.9 average antibiotic molecules per antibody (AAR4) for 1 hour to permit binding of the antibody to the bacteria. The resulting opsonized bacteria were fed to murine macrophages and incubated at 37° C. to permit phagocytosis (in vitro macrophage assay). After 2 hours, the infection mix was removed and replaced with normal growth media supplemented with 50 ug/mL of gentamycin to kill any remaining extracellular bacteria. The total number of surviving intracellular bacteria was determined 2 days later by plating serial dilutions of the macrophage lysates on Tryptic Soy Agar plates.
# [2] = tested on: MRSA (USA300 NRS384 strain); test: Murine intravenous infection model (SCID IVIG model); type: in vivo, Staphylococcus aureus; details: for mice having undetectable level of bacteria in hearts: day 4, n=8; for reduction of bacterial load in kidneys: vs naked antibody
# Method: Murine intravenous infection model. For studies involving competing human IgG (SCID IVIG model), CB17.SCID mice (Charles River Laboratories, Hollister, Calif.) were reconstituted with GammaGard S/D IGIV Immune Globulin (ASD Healthcare, Brooks Ky.) using a dosing regimen optimized to achieve constant serum levels of at least 10 mg/mL of human IgG in serum. IGIV was administered with an initial intravenous dose of 30 mg per mouse followed by a second dose of 15 mg/mouse by intraperitoneal injection after 6 hours, and subsequent daily dosing of 15 mg per mouse by intraperitoneal injection for 3 consecutive days.
# Mice (n=8 for each of antibody or AAC) were infected 4 hours after the first dose of IGIV with 1×10^7 CFU of MRSA (USA300 NRS384 strain) diluted in phosphate buffered saline by intravenous injection. Infected mice were treated with 50 mg/kg of rF1 naked antibody, 103 AAC DAR2 or 102 AAC DAR4. Mice were given a single dose of AAC 26h post infection by intravenous injection, sacrificed on day 4 post infection, and kidneys and hearts were harvested in 5 mL of phosphate buffered saline. The tissue samples were homogenized using a GentleMACS Dissociator™ (Miltenyi Biotec, Auburn, Calif.). The total number of bacteria recovered per organ was determined by plating serial dilutions of the tissue homogenate in PBS 0.05% Tween on Tryptic Soy Agar with 5% defibrinated sheep blood.
# [3] = tested on: MRSA (NRS384 strain of USA300); test: MIC determination for extracellular bacteria in liquid culture; type: cell-based; details: Staphylococcus aureus, read-out: Extracellular MRSA MIC
# Method: The MIC for extracellular bacteria was determined by preparing serial 2-fold dilutions of the antibiotic in Tryptic Soy Broth. Dilutions of the antibiotic were made in quadruplicate in 96 well culture dishes. MRSA (NRS384 strain of USA300) was taken from an exponentially growing culture and diluted to 1×10^4 CFU/mL. The bacteria was cultured in the presence of antibiotic for 18-24 hours with shaking at 37° C. and bacterial growth was determined by reading the Optical Density (OD) at […]. The MIC was determined to be the dose of antibiotic that inhibited bacterial growth by >90%.
# (§1) For extracellular bacteria, MRSA was cultured overnight in Tryptic Soy Broth, and the MIC was determined to be the minimum antibiotic dose that prevented growth. For intracellular bacteria, murine peritoneal macrophages were infected with MRSA and cultured in the presence of gentamycin to kill extracellular bacteria. Test antibiotics were added to the culture medium one day post infection, and the total number of surviving intracellular bacteria was determined 24 hours later. The expected serum concentrations for clinically relevant antibiotics was reported in Antimicrobial Agents, Andre Bryskier. ASM Press, Washington D.C. (2005).
# [4] = tested on: MRSA sequestered inside mouse peritoneal macrophages; test: MIC determination for intracellular bacteria sequestered inside murine macrophages; type: cell-based, Staphylococcus aureus; details: for killing of MRSA sequestered inside macrophages: clinically achievable concentrations of the antibiotics
# Method: Intracellular MIC was determined on bacteria that were sequestered inside mouse peritoneal macrophages (see below for generation of murine peritoneal macrophages). Macrophages were plated in 24 well culture dishes at a density of 4×10^5 cells/mL and infected with MRSA at a ratio of 10-20 bacteria per macrophage. Macrophage cultures were maintained in growth media supplemented with 50 ug/mL of gentamycin (an antibiotic that is active only on extracellular bacteria) to inhibit the growth of extracellular bacteria and test antibiotics were added to the growth media 1 day after infection. The survival of intracellular bacteria was assessed 24 hours after addition of the antibiotics. Macrophages were lysed with Hanks Buffered Saline Solution supplemented with 0.1% Bovine Serum Albumin and 0.1% Triton-X, and serial dilutions of the lysate were made in Phosphate Buffered Saline solution containing 0.05% Tween-20. The number of surviving intracellular bacteria was determined by plating on Tryptic Soy Agar plates with 5% defibrinated sheep blood.
# as §1
# [5] = molecular target: glycosylated serine-aspartate repeat (SDR) proteins of Staphylococcus aureus, as displayed on whole bacteria, in lysates or in cell wall preparations; test: flow cytometry on whole USA300 bacteria
# [6] = CB17.SCID mice with IGIV, 50 mg/kg single i.v. dose 26h post infection, day 4
Molecule,reduction of bacterial loads [1],killing of intracellular MRSA [1],mice having undetectable level of bacteria in hearts ([2]; 50 mg/kg single i.v. dose),"reduction of bacterial load in kidneys [2, 6]",killing of MRSA sequestered inside macrophages [4],also measured
"thio-rF1-HC-121C, LC-V205C-MC-(CBDK-cit)-PAB-(dimethylpipBOR) [AAC 102]","more than 4,000 fold",killed intracellular MRSA,8 out of 8,"more than 30,000 fold",,"eradication of infection in hearts ([2]; 50 mg/kg single i.v. dose, day 4): completely eradicated infection in hearts"
CCCCCCCCCC(=O)N[C@@H](Cc1c[nH]c2ccccc12)C(=O)N[C@H](CC(N)=O)C(=O)N[C@@H](CC(=O)O)C(=O)N[C@@H]1C(=O)NCC(=O)N[C@@H](CCCN)C(=O)N[C@@H](CC(=O)O)C(=O)N[C@H](C)C(=O)N[C@@H](CC(=O)O)C(=O)NCC(=O)N[C@H](CO)C(=O)N[C@@H]([C@H](C)CC(=O)O)C(=O)N[C@@H](CC(=O)c2ccccc2N)C(=O)O[C@@H]1C [Daptomycin],,,,,failed to kill,"MIC [3]: 4 µg/mL; MIC ([4]; Staphylococcus aureus, MRSA, 24 h, read-out: Intracellular MRSA MIC): > 100 µg/mL"
thio-rF1-LC-V205C-MC-(CBDK-cit)-PAB-(dimethylpipBOR) [AAC 103],350 fold,killed intracellular MRSA,6 out of 8,approximately 30 fold,,"reduction of bacterial burdens in heart [2, 6]: approximately 70 fold"
CO[C@H]1/C=C/O[C@@]2(C)Oc3c(C)c(O)c4c(O)c(c(/C=N/N5CCN(C)CC5)c(O)c4c3C2=O)NC(=O)/C(C)=C\C=C\[C@H](C)[C@H](O)[C@@H](C)[C@@H](O)[C@@H](C)[C@H](OC(C)=O)[C@@H]1C [Rifampicin],,,,,,"fold higher dose to eliminate intracellular MRSA compared to MIC of planktonic bacteria ([4]; intracellular vs planktonic): 6,000 fold"
CC(=O)NC[C@H]1CN(c2ccc(N3CCOCC3)c(F)c2)C(=O)O1 [Linezolid],,,,,failed to kill,
B1,,,,,,fold of maximum binding (MFI) against anti-ClfA mAb 4675 [5]: 10 fold

# Reference: patent US20180125995A1, “ANTI-STAPHYLOCOCCUS AUREUS ANTIBODY RIFAMYCIN CONJUGATES AND USES THEREOF” (priority 2014, published 2018)
